The source of these data is ChEMBL document CHEMBL1201862, “PubChem BioAssay data set” (2004).

Molecules are shown by their SMILES.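 Briefly, cells in 96-well plates were exposed to five compound concentrations for 48 h, and endpoints were estimated by linear interpolation. Here, GI50 denotes the concentration required for 50% inhibition of growth.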 Calls of active or inactive are those of the source. Cut-off read from the data, not from the text of the source: active = GI50 up to about 1.1 µM and inactive = higher. A value given as a limit tells only on which side of the number the result lay.

Test systems include SR; HCT-116; HOP-62; COLO 205; NCI-H522; MDA-N; NCI/ADR-RES; HCT-15; NCI-H226; MDA-MB-231; IGROV-1; NCI-H460; SNB-75; UACC-62; HT-29; TK-10; OVCAR-5; MDA-MB-435; SF-539.
Assay in all cases: NCI-60 cell line screen, 48 h

Turning to `COC(=O)/C=C\C(C#N)(C#N)/N=C/c1sccc1C`, the GI50 is 2.36 µM (inactive) in the assay on SR; 2.43 µM (inactive) with HCT-116; 14.7 µM (inactive) in the assay on HOP-62; 1.22 µM (inactive) with COLO 205; 0.268 µM (active) with NCI-H522; 3.59 µM (inactive) in the assay with MDA-N. For the same compound, the GI50 in the assay on NCI/ADR-RES is 11.8 µM (inactive); in the assay with HCT-15, 1.96 µM; with NCI-H226, 3.33 µM (inactive); with MDA-MB-231 it was 0.589 µM (active); with IGROV-1, 15 µM (inactive); in the assay with NCI-H460, 16.4 µM (inactive). In addition, the GI50 is 14.8 µM (inactive) in the assay on SNB-75; 6.62 µM (inactive) with UACC-62; 1.73 µM (inactive) with HT-29; 1.86 µM (inactive) in the assay with TK-10; 5.26 µM (inactive) with OVCAR-5; 3.58 µM (inactive) in the assay on MDA-MB-435.
`CCOC(=O)C(=CN1CCNC1=S)C(=O)OCC`: the GI50 in the assay on SR was > 100 µM (inactive); in the assay on HCT-116, > 100 µM (inactive); in the assay with HOP-62 it was > 100 µM (inactive); with COLO 205 it was > 100 µM (inactive); with NCI-H522 it was 62.7 µM (inactive); with MDA-N it was > 100 µM (inactive). Further, the GI50 in the assay with NCI/ADR-RES was > 100 µM (inactive); with HCT-15, above 100 µM; with NCI-H226, > 100 µM (inactive); in the assay with MDA-MB-231, > 100 µM (inactive); in the assay with IGROV-1 it was > 100 µM (inactive); in the assay with SF-539, > 100 µM (inactive). The GI50 in the assay with NCI-H460, in the assay on UACC-62, in the assay with HT-29, with OVCAR-5 and in the assay with MDA-MB-435 was > 100 µM (inactive) throughout.
For `COc1cc2c(cc1O)-c1c(OC)c(O)cc3c1C(C2)N(C)CC3` (stereo not drawn), the GI50 with SR, with HCT-116, with COLO 205, in the assay on NCI-H522, in the assay on MDA-N and in the assay with NCI/ADR-RES was > 100 µM (inactive) each time. Besides, the GI50 is above 100 µM with HCT-15; > 100 µM (inactive) in the assay on NCI-H226; > 100 µM (inactive) with MDA-MB-231; > 100 µM (inactive) in the assay with IGROV-1; > 100 µM (inactive) in the assay with SF-539; > 100 µM (inactive) with NCI-H460. The GI50 with SNB-75, with UACC-62, with HT-29, in the assay with TK-10, in the assay on OVCAR-5 and in the assay on MDA-MB-435 was > 100 µM (inactive) throughout.
Regarding `CCOP(=O)(OCC)/C(=C/NC(=S)c1ccncc1)C(=O)OC`, the GI50 is 4.48 µM (inactive) in the assay with SR; > 100 µM (inactive) with HCT-116; > 100 µM (inactive) with HOP-62; > 100 µM (inactive) in the assay on COLO 205; > 100 µM (inactive) in the assay on NCI-H522; > 100 µM (inactive) with MDA-N. Moreover, the GI50 with NCI/ADR-RES is > 100 µM (inactive); in the assay on HCT-15, above 100 µM; in the assay with NCI-H226, > 100 µM (inactive); in the assay with MDA-MB-231, > 100 µM (inactive); in the assay with IGROV-1, > 100 µM (inactive); with SF-539, > 100 µM (inactive). Moreover, the GI50 in the assay on NCI-H460, with UACC-62, in the assay on HT-29, in the assay on TK-10, in the assay on OVCAR-5 and with MDA-MB-435 was > 100 µM (inactive) each time.
Consider `COC(=O)C1(C#N)C(C)(C)N=C(c2ccccc2)C12CCCCC2` (stereo not drawn), for which the GI50 is 14.7 µM (inactive) in the assay with SR; > 100 µM (inactive) in the assay on HCT-116; > 100 µM (inactive) with HOP-62; > 100 µM (inactive) with COLO 205; > 100 µM (inactive) in the assay on NCI-H522; > 100 µM (inactive) with MDA-N. Also, the GI50 in the assay with NCI/ADR-RES was > 100 µM (inactive); with HCT-15, above 100 µM; in the assay on MDA-MB-231 it was > 100 µM (inactive); in the assay with IGROV-1, > 100 µM (inactive); in the assay with SF-539 it was > 100 µM (inactive); in the assay on NCI-H460 it was > 100 µM (inactive). In addition, the GI50 is 76.9 µM (inactive) with UACC-62; > 100 µM (inactive) in the assay on HT-29; > 100 µM (inactive) in the assay with TK-10; > 100 µM (inactive) with OVCAR-5; > 100 µM (inactive) in the assay on MDA-MB-435.
Consider `CC(=O)Oc1ccc(/C=C/C(=O)O[C@H]2CCCC[C@@H]2OC(=O)/C=C/c2ccc(OC(C)=O)c(OC(C)=O)c2)cc1OC(C)=O`, for which the GI50 in the assay with SR was 4.34 µM (inactive); in the assay with HCT-116 it was 4.58 µM (inactive); in the assay with HOP-62, 7.38 µM (inactive); in the assay on COLO 205 it was 16.7 µM (inactive); in the assay with NCI-H522 it was 2.81 µM (inactive); in the assay on MDA-N, 8.97 µM (inactive). Also, the GI50 is 19.2 µM (inactive) in the assay on NCI/ADR-RES; 5.13 µM in the assay with HCT-15; 17 µM (inactive) in the assay on MDA-MB-231; 4.09 µM (inactive) in the assay on IGROV-1; 6.38 µM (inactive) in the assay on SF-539; 3.85 µM (inactive) in the assay on NCI-H460. Besides, the GI50 in the assay with SNB-75 was 9.46 µM (inactive); in the assay with UACC-62, 4.84 µM (inactive); with HT-29, 5.47 µM (inactive); with TK-10, 6.93 µM (inactive); in the assay on OVCAR-5, 12.3 µM (inactive); with MDA-MB-435, 10.4 µM (inactive).
Regarding `COc1ccc(C=C2C(=O)NC(=S)NC2=O)c2ccccc12`, the GI50 was 42.7 µM (inactive) in the assay with SR; 40 µM (inactive) in the assay with HCT-116; 30.4 µM (inactive) in the assay on HOP-62; 47.2 µM (inactive) in the assay with NCI-H522; 18.1 µM (inactive) in the assay with MDA-N; 26.7 µM (inactive) with NCI/ADR-RES. Also, the GI50 with HCT-15 was 33.1 µM; in the assay with NCI-H226, 0.179 µM (active); in the assay with MDA-MB-231, 39.9 µM (inactive); in the assay with IGROV-1, 38.3 µM (inactive); with SF-539 it was 22 µM (inactive); in the assay with NCI-H460, 12 µM (inactive). Moreover, the GI50 in the assay with HT-29 was 28.2 µM (inactive); with TK-10, 7.6 µM (inactive); in the assay with OVCAR-5 it was 5.13 µM (inactive); in the assay on MDA-MB-435, 27 µM (inactive).
Turning to `CCc1n[nH]c(=O)n1/N=C/c1c(O)ccc2ccccc12`, the GI50 in the assay on SR, in the assay on HCT-116, in the assay on HOP-62, in the assay on COLO 205, in the assay with NCI-H522 and in the assay with MDA-N was > 100 µM (inactive) in each case. Further, the GI50 in the assay on NCI/ADR-RES was > 100 µM (inactive); in the assay with HCT-15, above 100 µM; with MDA-MB-231 it was > 100 µM (inactive); in the assay with IGROV-1, > 100 µM (inactive); with SF-539, > 100 µM (inactive); in the assay on SNB-75 it was > 100 µM (inactive). Further, the GI50 with UACC-62, in the assay with TK-10, in the assay with OVCAR-5 and with MDA-MB-435 was > 100 µM (inactive) each time.
Take `Cn1cc2c(=O)n3ncn(-c4ccc(Br)cc4)c3nc2n1`: the GI50 with SR, with HCT-116, with COLO 205, in the assay on NCI-H522, in the assay on MDA-N and in the assay on NCI/ADR-RES was > 100 µM (inactive) each time. Besides, the GI50 is above 100 µM in the assay with HCT-15; > 100 µM (inactive) in the assay with NCI-H226; > 100 µM (inactive) in the assay with MDA-MB-231; > 100 µM (inactive) with IGROV-1; > 100 µM (inactive) in the assay with SF-539; > 100 µM (inactive) with NCI-H460. The GI50 in the assay with SNB-75, in the assay with UACC-62, in the assay on HT-29, in the assay with TK-10, with OVCAR-5 and in the assay on MDA-MB-435 was > 100 µM (inactive) throughout.
As for `O=C(O)CSCC(=O)O`, the GI50 with SR, in the assay on HCT-116, in the assay with HOP-62, in the assay on NCI-H522, with MDA-N and in the assay with NCI/ADR-RES was > 100 µM (inactive) throughout. Further, the GI50 with HCT-15 was above 100 µM; with NCI-H226 it was > 100 µM (inactive); with MDA-MB-231, > 100 µM (inactive); with IGROV-1, > 100 µM (inactive); in the assay on NCI-H460 it was > 100 µM (inactive); in the assay with SNB-75 it was > 100 µM (inactive). In addition, the GI50 in the assay on UACC-62, in the assay with HT-29, in the assay with TK-10, in the assay with OVCAR-5 and in the assay with MDA-MB-435 was > 100 µM (inactive) each time.
Take `CCc1n[nH]c(=O)n1N1C(=O)CCC1=O`: the GI50 in the assay on SR, in the assay with HCT-116, in the assay on HOP-62, in the assay with COLO 205, with NCI-H522 and with MDA-N was > 100 µM (inactive) each time. Further, the GI50 was > 100 µM (inactive) in the assay with NCI/ADR-RES; above 100 µM in the assay on HCT-15; > 100 µM (inactive) in the assay with NCI-H226; > 100 µM (inactive) in the assay on MDA-MB-231; > 100 µM (inactive) with IGROV-1; > 100 µM (inactive) in the assay with NCI-H460. In addition, the GI50 in the assay on SNB-75, in the assay on UACC-62, in the assay with HT-29, with TK-10, in the assay on OVCAR-5 and with MDA-MB-435 was > 100 µM (inactive) throughout.
As to `C1=N\CCNCCNCC/N=C\c2ccc(cc2)OCc2cccc(n2)COc2ccc/1cc2`, the GI50 was 50.5 µM (inactive) in the assay with SR; > 100 µM (inactive) in the assay with HCT-116; > 100 µM (inactive) in the assay with HOP-62; > 100 µM (inactive) in the assay with COLO 205; > 100 µM (inactive) with MDA-N; 95.1 µM (inactive) in the assay with NCI/ADR-RES. Besides, the GI50 in the assay with HCT-15 was above 100 µM; with NCI-H226 it was > 100 µM (inactive); in the assay on MDA-MB-231, > 100 µM (inactive); with IGROV-1, > 100 µM (inactive); in the assay with SF-539 it was > 100 µM (inactive); in the assay with NCI-H460, 73.6 µM (inactive). Further, the GI50 is 47.1 µM (inactive) in the assay with SNB-75; > 100 µM (inactive) in the assay on UACC-62; > 100 µM (inactive) in the assay on HT-29; > 100 µM (inactive) with OVCAR-5; 75.2 µM (inactive) in the assay on MDA-MB-435.
